Assay results reported in PMC6210068 (ACS Omega, 2018).

What was measured:
[1] = biological target: T1, DOR (Homo sapiens, UniProt P41143); experiment: Radioligand binding at DOR
[2] = biological target: T2, KOR (Homo sapiens, UniProt P41145); experiment: biochemical; format: binding; details: for Ki: KOR
[3] = biological target: T3, MOR (Homo sapiens, UniProt P35372); experiment: biochemical; format: binding; details: for MOR, inhibition of radioligand binding at 10 μM (class): Table 2
[4] = biological target: hNOP (Homo sapiens, UniProt P41146); experiment: Radioligand binding at NOP
hNOP, sequence (P41146 whole entry): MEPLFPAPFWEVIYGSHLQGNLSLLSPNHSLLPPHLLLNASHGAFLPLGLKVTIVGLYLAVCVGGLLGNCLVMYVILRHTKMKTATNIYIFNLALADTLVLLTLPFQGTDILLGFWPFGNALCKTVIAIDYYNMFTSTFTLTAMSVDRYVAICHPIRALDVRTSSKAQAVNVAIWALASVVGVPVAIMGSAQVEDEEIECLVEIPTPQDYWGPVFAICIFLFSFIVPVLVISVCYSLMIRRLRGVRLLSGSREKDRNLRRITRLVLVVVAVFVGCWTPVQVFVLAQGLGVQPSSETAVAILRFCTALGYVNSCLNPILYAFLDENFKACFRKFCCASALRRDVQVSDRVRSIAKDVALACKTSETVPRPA

[5] = biological target: rat kidney TSPO (Rattus norvegicus, UniProt P16257); experiment: Radioligand binding at TSPO; details: for Ki: TSPO, rat TSPO, [3H]PK11195
rat kidney TSPO, sequence (P16257 whole entry): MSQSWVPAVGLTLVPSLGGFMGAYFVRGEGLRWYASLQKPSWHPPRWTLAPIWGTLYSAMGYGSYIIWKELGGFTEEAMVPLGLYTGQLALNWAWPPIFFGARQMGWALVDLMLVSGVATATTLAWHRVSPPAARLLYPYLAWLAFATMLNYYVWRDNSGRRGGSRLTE

[6] = biological target: hDAT (Homo sapiens, UniProt Q01959); experiment: Radioligand binding at DAT; details: for DAT, inhibition, % of control at 10 μM: [3H]WIN35428, negative = enhanced radioligand binding
hDAT, sequence (Q01959 whole entry): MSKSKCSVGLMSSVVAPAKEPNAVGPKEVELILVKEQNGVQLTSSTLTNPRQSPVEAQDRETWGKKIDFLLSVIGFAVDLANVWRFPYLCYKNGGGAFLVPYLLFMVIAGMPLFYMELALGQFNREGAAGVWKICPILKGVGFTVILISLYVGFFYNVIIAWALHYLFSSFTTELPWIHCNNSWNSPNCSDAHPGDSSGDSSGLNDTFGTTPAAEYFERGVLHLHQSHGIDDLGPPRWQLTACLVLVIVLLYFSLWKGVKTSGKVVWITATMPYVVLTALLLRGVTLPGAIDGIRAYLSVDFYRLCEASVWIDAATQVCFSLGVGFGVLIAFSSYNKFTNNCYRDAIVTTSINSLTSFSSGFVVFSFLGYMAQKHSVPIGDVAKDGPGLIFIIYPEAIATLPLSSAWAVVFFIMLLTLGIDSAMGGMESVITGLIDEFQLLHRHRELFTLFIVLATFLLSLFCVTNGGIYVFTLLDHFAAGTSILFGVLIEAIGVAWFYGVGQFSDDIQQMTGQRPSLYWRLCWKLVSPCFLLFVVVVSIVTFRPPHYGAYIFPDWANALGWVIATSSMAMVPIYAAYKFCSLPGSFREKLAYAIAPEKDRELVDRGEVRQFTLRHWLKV

[7] = biological target: T4, hA3AR (Homo sapiens, UniProt P0DMS8); experiment: A3AR binding
T4 sequence (P0DMS8 1-318): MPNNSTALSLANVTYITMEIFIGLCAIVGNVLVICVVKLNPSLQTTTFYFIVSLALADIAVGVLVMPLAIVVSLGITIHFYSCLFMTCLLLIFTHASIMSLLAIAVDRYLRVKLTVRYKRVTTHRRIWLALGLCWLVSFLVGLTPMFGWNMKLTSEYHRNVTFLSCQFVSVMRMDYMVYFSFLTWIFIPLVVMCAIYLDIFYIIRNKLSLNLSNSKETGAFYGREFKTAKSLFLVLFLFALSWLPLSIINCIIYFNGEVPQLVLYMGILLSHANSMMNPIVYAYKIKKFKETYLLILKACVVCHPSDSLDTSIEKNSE

[8] = biological target: T1, DOR; experiment: β-arrestin-recruitment TANGO assay at DOR; format: cell-based; details: 10 μM; for DOR Antag (%): vs naloxone 121 = 100% inhibition; for DOR Ag (%): vs standard agonist = 100%
[9] = biological target: T2, KOR; experiment: β-arrestin-recruitment TANGO assay at KOR; format: cell-based; details: 10 μM; vs naloxone 121 = 100% inhibition; agonist 109 (3 nM)
[10] = biological target: T3, MOR; experiment: β-arrestin-recruitment TANGO assay at MOR; format: cell-based; details: 10 μM; for MOR Antag (%): vs naloxone 121 = 100% inhibition, agonist 99 (300 nM); for MOR Ag (%): vs standard agonist = 100%
[11] = biological target: T5, mA3AR (Mus musculus, UniProt Q61618); experiment: Mouse A3AR binding
T5 sequence (Q61618 1-319): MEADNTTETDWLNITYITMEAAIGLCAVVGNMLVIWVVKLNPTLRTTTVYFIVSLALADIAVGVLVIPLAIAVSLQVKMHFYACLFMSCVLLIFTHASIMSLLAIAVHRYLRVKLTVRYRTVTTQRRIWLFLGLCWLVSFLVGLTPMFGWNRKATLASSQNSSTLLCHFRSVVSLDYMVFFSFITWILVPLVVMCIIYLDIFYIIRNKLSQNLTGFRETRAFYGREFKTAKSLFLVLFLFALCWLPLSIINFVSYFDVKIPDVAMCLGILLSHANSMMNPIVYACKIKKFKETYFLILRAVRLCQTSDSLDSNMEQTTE

[12] = biological target: hA2AAR (Homo sapiens, UniProt P29274); experiment: hA2AAR binding
hA2AAR, sequence (P29274 whole entry): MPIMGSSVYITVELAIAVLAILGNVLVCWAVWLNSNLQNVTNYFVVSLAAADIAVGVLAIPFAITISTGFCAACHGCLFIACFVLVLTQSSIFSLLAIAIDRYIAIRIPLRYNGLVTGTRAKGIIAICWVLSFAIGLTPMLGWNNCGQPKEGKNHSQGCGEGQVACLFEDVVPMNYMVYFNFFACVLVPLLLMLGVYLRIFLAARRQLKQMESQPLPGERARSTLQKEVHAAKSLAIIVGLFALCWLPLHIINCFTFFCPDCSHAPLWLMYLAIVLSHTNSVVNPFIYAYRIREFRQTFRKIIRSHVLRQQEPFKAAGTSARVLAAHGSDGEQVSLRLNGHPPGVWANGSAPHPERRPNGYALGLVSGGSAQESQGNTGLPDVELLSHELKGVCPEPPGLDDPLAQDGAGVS

[13] = biological target: T6, rat σ2 receptor (Rattus norvegicus, UniProt Q5U3Y7); experiment: PDSP binding, σ2 receptor
T6 sequence (Q5U3Y7 1-176): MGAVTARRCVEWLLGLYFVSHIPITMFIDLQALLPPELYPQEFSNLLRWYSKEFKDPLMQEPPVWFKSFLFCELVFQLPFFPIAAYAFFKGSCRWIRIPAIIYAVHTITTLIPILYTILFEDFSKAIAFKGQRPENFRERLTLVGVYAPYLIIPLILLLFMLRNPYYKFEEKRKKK

[14] = biological target: T7, 5HT2C serotonin receptor (Homo sapiens, UniProt P28335); experiment: PDSP off-target binding, 5HT2C
T7 sequence (P28335 33-458): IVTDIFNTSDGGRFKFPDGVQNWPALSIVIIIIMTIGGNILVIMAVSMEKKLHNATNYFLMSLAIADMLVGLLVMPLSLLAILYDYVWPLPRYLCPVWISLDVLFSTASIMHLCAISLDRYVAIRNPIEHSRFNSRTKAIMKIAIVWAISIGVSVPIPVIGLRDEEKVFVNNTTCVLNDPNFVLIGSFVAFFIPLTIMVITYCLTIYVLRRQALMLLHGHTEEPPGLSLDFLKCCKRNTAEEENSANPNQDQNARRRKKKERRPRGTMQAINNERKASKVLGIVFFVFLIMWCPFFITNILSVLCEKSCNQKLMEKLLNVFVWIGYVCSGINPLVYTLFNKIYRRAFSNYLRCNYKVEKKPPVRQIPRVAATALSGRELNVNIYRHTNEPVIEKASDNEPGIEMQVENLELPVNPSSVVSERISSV

[15] = biological target: T8, hA1AR (Homo sapiens, UniProt P30542); experiment: hA1AR binding; details: read-out: binding inhibition at hA1AR (% at 10 μM)
T8 sequence (P30542 1-326): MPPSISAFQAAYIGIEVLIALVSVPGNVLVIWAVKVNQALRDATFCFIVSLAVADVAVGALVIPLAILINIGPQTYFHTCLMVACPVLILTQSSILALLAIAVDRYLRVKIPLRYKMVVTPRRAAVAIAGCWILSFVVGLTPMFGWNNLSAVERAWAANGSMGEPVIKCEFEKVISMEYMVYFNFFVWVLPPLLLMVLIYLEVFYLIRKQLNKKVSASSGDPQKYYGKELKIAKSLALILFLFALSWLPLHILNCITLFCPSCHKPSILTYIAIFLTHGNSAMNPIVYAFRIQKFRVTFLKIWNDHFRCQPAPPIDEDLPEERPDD

[16] = [3H]U69593, mean ± SEM, N = 2–4

T3 sequence (P35372 whole entry): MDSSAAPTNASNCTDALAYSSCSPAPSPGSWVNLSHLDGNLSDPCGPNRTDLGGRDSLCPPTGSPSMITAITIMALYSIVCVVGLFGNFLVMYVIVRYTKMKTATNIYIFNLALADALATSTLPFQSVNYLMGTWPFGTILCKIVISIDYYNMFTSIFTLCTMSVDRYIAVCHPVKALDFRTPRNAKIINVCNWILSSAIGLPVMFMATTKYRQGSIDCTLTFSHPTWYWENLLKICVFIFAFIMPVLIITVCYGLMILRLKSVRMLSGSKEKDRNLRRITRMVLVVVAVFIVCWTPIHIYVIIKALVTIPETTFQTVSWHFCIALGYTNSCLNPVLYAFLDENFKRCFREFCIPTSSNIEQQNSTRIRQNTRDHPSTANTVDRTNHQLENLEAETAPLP
T2 sequence (P41145 whole entry): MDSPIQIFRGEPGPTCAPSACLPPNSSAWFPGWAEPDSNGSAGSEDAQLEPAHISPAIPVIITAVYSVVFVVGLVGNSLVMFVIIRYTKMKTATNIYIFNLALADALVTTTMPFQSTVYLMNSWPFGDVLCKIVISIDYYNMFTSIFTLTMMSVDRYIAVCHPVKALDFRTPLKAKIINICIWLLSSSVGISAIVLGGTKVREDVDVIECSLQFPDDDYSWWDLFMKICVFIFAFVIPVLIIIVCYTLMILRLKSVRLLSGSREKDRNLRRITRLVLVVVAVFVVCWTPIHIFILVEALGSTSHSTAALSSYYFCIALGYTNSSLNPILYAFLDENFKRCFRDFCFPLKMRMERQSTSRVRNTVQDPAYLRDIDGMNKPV
T1 sequence (P41143 whole entry): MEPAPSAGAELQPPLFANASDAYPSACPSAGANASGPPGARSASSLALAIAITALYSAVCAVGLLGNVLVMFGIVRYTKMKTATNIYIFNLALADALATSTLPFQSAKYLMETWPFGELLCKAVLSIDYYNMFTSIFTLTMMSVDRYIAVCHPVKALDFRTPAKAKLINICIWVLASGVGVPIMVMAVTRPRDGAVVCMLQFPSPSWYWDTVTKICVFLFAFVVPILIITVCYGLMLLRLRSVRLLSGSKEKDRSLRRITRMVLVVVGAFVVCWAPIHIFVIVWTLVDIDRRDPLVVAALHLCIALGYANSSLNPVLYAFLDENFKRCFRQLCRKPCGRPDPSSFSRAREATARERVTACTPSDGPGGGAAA

## CCOC(=O)[C@@]12C[C@@H]1[C@@H](n1ccc3c(NC)nc(C#Cc4ccc(Br)s4)nc31)[C@H](O)[C@@H]2O [compound 29, Ethyl(1S,2R,3S,4R,5S)-4-(2-((5-bromothiophen-2-yl)ethynyl)-4-(methylamino)-7H-pyrrolo[2,3-d]pyrimidin-7-yl)-2,3-dihydroxybicyclo[3.1.0]hexane-1-carboxylate]
[1]
  Ki: 0.437 ± 0.094 µM
[2]; [16]
  Ki: 39 ± 1 nM
[2]; ratio of Ki
  preference for KOR in comparison to DOR: 11 fold
  preference for KOR in comparison to MOR: 9 fold
  preference for KOR in comparison to TSPO: ~20 fold
[3]
  Ki: 368 ± 135 nM
[4]
  Ki: 2.76 ± 0.67 µM
[5]
  Ki: 765 ± 118 nM
[6]
  EC50: > 1000 nM
  DAT, inhibition, % of control at 10 μM: –102 ± 8 (3) %
[7]
  Ki: 466 ± 20 nM
[8]
  DOR Antag (%): 93.2%
  DOR Ag (%): –1.1%
[9]
  KOR Antag (%): 104.5%
[10]
  MOR Antag (%): 96.9%
  MOR Ag (%): 1.6%

## CNC(=O)[C@@]12C[C@@H]1[C@@H](n1cnc3c(NCCCO)nc(C#Cc4ccc(Cl)s4)nc31)[C@H](O)[C@@H]2O [compound 20]
[1]; Table 1
  DOR, inhibition of radioligand binding at 10 μM (class): ^e (30–50% inhibition of radioligand binding at 10 μM)
[5]
  Ki: 6160 ± 50 nM
[6]
  DAT, inhibition, % of control at 10 μM: –107 ± 4%
[7]
  Ki: 2.04 ± 1.46 nM
[11]
  Ki: 105 nM

## O[C@@H]1[C@H](O)[C@@H]2C[C@@H]2[C@H]1n1cnc2c(NCc3cccc(Cl)c3)nc(C#Cc3ccccc3)nc21 [compound 47]
[1]
  Ki: 8 ± 1 µM
[4]
  Ki: > 10 µM
[5]
  Ki: 1640 ± 160 nM
[6]
  DAT, inhibition, % of control at 10 μM: 37%
[11]
  Ki: 299 nM
[12]
  Ki: 670 nM
[13]
  Ki: 2730 nM

## CNc1nc(C#Cc2ccc(Cl)s2)nc2c1ncn2[C@H]1[C@H](O)[C@H](O)[C@]2(C(=O)NCCN)C[C@H]12 [compound 21]
[1]; Table 1
  DOR, inhibition of radioligand binding at 10 μM (class): ^f (<30% inhibition of radioligand binding at 10 μM)
[2]
  Ki: 2790 nM
[5]
  Ki: > 10000 nM
[6]
  DAT, inhibition, % of control at 10 μM: –136%
[7]
  Ki: 158 ± 8 nM
[14]
  Ki: 510 nM

## CNC(=O)[C@@]12C[C@@H]1[C@@H](n1cnc3c(NC)nc(C#Cc4ccccc4Cl)nc31)[C@H](O)[C@@H]2O [compound 13]
[1]; Table 1
  DOR, inhibition of radioligand binding at 10 μM (class): ^e (30–50% inhibition of radioligand binding at 10 μM)
[5]; Table 1, 10 μM
  TSPO, inhibition of radioligand binding at 10 μM (class): ^e (30–50% inhibition of radioligand binding at 10 μM)
[6]
  DAT, inhibition, % of control at 10 μM: –484%
[11]
  Ki: 110 nM

## CNc1nc(C#Cc2ccc(Cl)s2)nc2c1ncn2[C@H]1[C@H](O)[C@H](O)[C@]2(C(=O)OCc3ccccc3)C[C@H]12 [compound 35]
[1]; Table 2
  DOR, inhibition of radioligand binding at 10 μM (class): ^d (<30% inhibition of radioligand binding at 10 μM)
[2]; [16]
  Ki: 629 ± 183 nM
[3]
  MOR, inhibition of radioligand binding at 10 μM (class): ^c (30–50% inhibition of radioligand binding at 10 μM)
[5]
  Ki: 4050 ± 740 nM
[6]
  DAT, inhibition, % of control at 10 μM: <20%
[7]
  Ki: 7.81 ± 2.4 nM
[11]
  Ki: 891 nM
[8]
  DOR Antag (%): 14.1%
  DOR Ag (%): –1.9%
[9]
  KOR Antag (%): 112.9%
[10]
  MOR Antag (%): 82.1%
  MOR Ag (%): 3.1%

## CNC(=O)[C@@]12C[C@@H]1[C@@H](n1cnc3c(NCCC(F)(F)F)nc(C#Cc4ccc(Cl)s4)nc31)[C@H](O)[C@@H]2O [compound 19]
[1]; Table 1
  DOR, inhibition of radioligand binding at 10 μM (class): ^e (30–50% inhibition of radioligand binding at 10 μM)
[5]
  Ki: 1300 ± 150 nM
[6]
  DAT, inhibition, % of control at 10 μM: 15%
[7]
  Ki: 3.7 ± 1 nM
[11]
  Ki: 71 nM
[15]
  inhibition at 10 µM: 46%
[12]; read-out: binding inhibition at hA2AAR (% at 10 μM)
  inhibition at 10 µM: 21%

## CCCCC(=O)[C@@]12C[C@@H]1[C@@H](n1ccc3c(NC)nc(C#Cc4ccc(Cl)s4)nc31)[C@H](O)[C@@H]2O [compound 44]
[2]; [16]
  Ki: 2610 ± 660 nM
[4]
  Ki: > 10 µM
[6]
  DAT, inhibition, % of control at 10 μM: –9%
[7]
  Ki: 98 ± 30 nM
[8]
  DOR Antag (%): 20.3%
  DOR Ag (%): 6.7%
[9]
  KOR Antag (%): 65.5%
[10]
  MOR Antag (%): –44.4%
  MOR Ag (%): 6.0%

## CCOC(=O)[C@@]12C[C@@H]1[C@@H](n1cnc3c(NC)nc(C#Cc4ccc(Br)s4)nc31)[C@H](O)[C@@H]2O [compound 25]
[1]; Table 2
  DOR, inhibition of radioligand binding at 10 μM (class): ^c (30–50% inhibition of radioligand binding at 10 μM)
[2]; [16]
  Ki: 975 ± 198 nM
[3]
  MOR, inhibition of radioligand binding at 10 μM (class): ^c (30–50% inhibition of radioligand binding at 10 μM)
[4]
  Ki: > 10 µM
[5]
  Ki: 1520 ± 250 nM
[6]
  DAT, inhibition, % of control at 10 μM: –430%
[8]
  DOR Antag (%): –6.0%
  DOR Ag (%): –1.7%
[9]
  KOR Antag (%): 88.1%
[10]
  MOR Antag (%): 22.6%
  MOR Ag (%): –1.2%
